In patent US9085550B2, “Ligands for estrogen related receptors and methods for synthesis of said ligands” (CITY OF HOPE, priority 2005, dated 2015):
Several values for one entry are separate records, joined by “and”; a condition that tells them apart may be missing. Identical values can stand only once.

What was measured:
[1] = biological target: T1, HRHN-GAL (yeast GAL4 DNA binding domain without receptor sequences) (Saccharomyces cerevisiae, UniProt P04386); test: GAL4 reporter transactivation assay in CV-1 cells, control vector without receptor; format: cell-based, monkey; conditions: for Fold activation, HRHN-GAL: reporter 0.42:vector 0.00875, no PGC-1a
T1 construct: expressed in transfected cells; host or cells: CV-1

[2] = biological target: T2, GAL-hERRa (human ERRα ligand binding domain fused to GAL4 DNA binding domain) (Homo sapiens, UniProt P11474); test: GAL4 reporter transactivation assay in CV-1 cells, GAL-hERRa; format: cell-based; conditions: for Fold activation, GAL-hERRa + PGC-1a / Fold activation, GAL-hERRa / Fold activation, Receptor ERRα: CV-1; for Fold activation, GAL-hERRa + PGC-1a: reporter 0.42:vector 0.00875:PGC-1a 0.035; for Fold activation, GAL-hERRa: reporter 0.42:vector 0.00875, no PGC-1a; for Fold activation, Receptor ERRα: Table 1, reporter 0.42:receptor vector 0.035:PGC-1a 0.035
T2 construct: expressed in transfected cells; host or cells: CV-1
T2 sequence (P11474 193-421 limits assumed): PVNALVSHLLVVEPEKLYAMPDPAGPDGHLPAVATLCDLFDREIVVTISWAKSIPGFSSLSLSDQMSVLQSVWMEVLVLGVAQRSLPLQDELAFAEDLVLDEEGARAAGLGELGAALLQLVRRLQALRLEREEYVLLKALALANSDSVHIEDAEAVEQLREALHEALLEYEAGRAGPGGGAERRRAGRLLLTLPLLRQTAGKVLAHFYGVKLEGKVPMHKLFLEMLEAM

[3] = biological target: T3, GAL-L-hERRb (human ERRβ ligand binding domain fused to GAL4 DNA binding domain) (Homo sapiens, UniProt O95718); test: GAL4 reporter transactivation assay in CV-1 cells, GAL-L-hERRb; format: cell-based; conditions: for Fold activation, GAL-L-hERRb + PGC-1a / Fold activation, GAL-L-hERRb / Fold activation, Receptor ERRβ: CV-1; for Fold activation, GAL-L-hERRb + PGC-1a: reporter 0.42:vector 0.00875:PGC-1a 0.035; for Fold activation, GAL-L-hERRb: reporter 0.42:vector 0.00875, no PGC-1a; for Fold activation, Receptor ERRβ: Table 1, reporter 0.42:receptor vector 0.035:PGC-1a 0.035
T3 construct: expressed in transfected cells; host or cells: CV-1
T3 sequence (O95718 208-432 limits assumed): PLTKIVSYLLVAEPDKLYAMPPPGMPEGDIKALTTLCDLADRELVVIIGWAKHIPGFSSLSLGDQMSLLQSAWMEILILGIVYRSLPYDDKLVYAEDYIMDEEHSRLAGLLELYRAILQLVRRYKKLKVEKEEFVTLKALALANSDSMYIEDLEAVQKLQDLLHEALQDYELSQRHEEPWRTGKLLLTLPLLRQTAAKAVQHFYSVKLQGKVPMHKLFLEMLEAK

[4] = biological target: T4, GAL-mERRg (mouse ERRγ ligand binding domain fused to GAL4 DNA binding domain) (Mus musculus, UniProt P62509); test: GAL4 reporter transactivation assay in CV-1 cells, GAL-mERRg; format: cell-based; conditions: for Fold activation, GAL-mERRg + PGC-1a / Fold activation, GAL-mERRg / Fold activation, Receptor ERRγ: CV-1; for Fold activation, GAL-mERRg + PGC-1a: reporter 0.42:vector 0.00875:PGC-1a 0.035; for Fold activation, GAL-mERRg: reporter 0.42:vector 0.00875, no PGC-1a; for Fold activation, Receptor ERRγ: Table 1, reporter 0.42:receptor vector 0.035:PGC-1a 0.035
T4 construct: expressed in transfected cells; host or cells: CV-1
T4 sequence (P62509 233-457 limits assumed): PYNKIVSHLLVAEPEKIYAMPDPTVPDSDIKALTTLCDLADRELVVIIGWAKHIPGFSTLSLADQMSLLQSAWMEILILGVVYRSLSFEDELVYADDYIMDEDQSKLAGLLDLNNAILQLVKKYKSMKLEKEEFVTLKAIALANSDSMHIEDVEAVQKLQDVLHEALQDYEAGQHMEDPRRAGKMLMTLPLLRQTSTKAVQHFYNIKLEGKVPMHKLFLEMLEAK

human ERα = biological target: T5, human ERα (Homo sapiens, UniProt P03372); test: ERE-TK-luc reporter transactivation assay in CV-1 cells, full-length hERa; format: cell-based
T5 construct: Human ERα and ERβ were examined as full-length proteins using an estrogen receptor responsive reporter construct; expressed in transfected cells; host or cells: CV-1
T5 sequence (P03372 1-595): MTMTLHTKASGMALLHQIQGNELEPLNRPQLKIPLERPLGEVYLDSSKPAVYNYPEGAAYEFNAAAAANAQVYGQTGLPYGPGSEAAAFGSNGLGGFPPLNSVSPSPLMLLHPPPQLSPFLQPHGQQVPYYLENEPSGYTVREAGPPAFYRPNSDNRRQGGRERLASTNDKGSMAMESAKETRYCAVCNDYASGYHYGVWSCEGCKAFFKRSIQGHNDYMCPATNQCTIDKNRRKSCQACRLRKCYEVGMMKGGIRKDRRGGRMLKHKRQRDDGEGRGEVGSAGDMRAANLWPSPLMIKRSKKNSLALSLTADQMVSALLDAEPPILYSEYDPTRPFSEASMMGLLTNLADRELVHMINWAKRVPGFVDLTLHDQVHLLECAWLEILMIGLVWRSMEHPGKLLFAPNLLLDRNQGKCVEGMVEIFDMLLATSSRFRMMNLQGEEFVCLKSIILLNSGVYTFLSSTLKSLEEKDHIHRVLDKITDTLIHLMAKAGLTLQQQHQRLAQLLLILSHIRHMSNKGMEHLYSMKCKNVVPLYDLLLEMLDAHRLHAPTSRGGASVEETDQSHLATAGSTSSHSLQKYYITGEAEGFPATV

human ERβ = biological target: T6, human ERβ (Homo sapiens, UniProt Q92731); test: ERE-TK-luc reporter transactivation assay in CV-1 cells, full-length hERb; format: cell-based; conditions: for Fold activation, Receptor ERRβ: Table 1 second block
T6 construct: Human ERα and ERβ were examined as full-length proteins using an estrogen receptor responsive reporter construct; expressed in transfected cells; host or cells: CV-1
T6 sequence (Q92731 whole entry): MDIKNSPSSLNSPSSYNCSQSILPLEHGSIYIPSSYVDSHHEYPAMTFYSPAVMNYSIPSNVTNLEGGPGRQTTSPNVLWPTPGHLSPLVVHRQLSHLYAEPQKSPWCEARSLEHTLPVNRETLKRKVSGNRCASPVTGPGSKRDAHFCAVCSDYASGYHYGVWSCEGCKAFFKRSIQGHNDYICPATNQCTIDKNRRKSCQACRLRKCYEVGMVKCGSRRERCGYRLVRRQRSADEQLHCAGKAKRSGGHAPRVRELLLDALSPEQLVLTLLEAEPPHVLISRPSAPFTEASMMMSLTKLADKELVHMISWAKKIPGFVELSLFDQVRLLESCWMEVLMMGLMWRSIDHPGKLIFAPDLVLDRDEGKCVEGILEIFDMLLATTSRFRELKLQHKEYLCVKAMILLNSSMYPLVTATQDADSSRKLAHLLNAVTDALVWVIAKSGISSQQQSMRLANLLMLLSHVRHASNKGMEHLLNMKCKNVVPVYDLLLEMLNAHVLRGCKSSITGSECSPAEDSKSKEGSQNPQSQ

T1 sequence (P04386 1-147): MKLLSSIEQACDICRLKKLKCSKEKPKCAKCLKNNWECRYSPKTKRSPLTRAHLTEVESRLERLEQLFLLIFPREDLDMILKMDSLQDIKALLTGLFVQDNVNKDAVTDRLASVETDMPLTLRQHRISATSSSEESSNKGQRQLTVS

CCN(CC)c1ccc(C=NNC(=O)c2ccc(O)cc2)cc1 [DY131, 4-Hydroxy-benzoic acid (4-diethylamino-benzylidene)-hydrazide]
Fold activation, Receptor — (first block) ([1]; Table 1, reporter 0.42:receptor vector 0.035:PGC-1a 0.035, 3 μM): 0.8 fold
Fold activation, Receptor — (first block) ([1]; Table 1, reporter 0.42:receptor vector 0.035:PGC-1a 0.035, 10 μM): 0.7 fold
Fold activation, Receptor — (first block) ([1]; Table 1, reporter 0.42:receptor vector 0.035:PGC-1a 0.035, 30 μM): 0.9 fold
Fold activation, HRHN-GAL ([1]; 0.3 μM): 1.03 fold
Fold activation, HRHN-GAL ([1]; 1 μM): 0.94 fold
Fold activation, HRHN-GAL ([1]; 3 μM (first 3 μM column)): 0.74 fold
Fold activation, HRHN-GAL ([1]; 3 μM (second 3 μM column)): 0.74 fold
Fold activation, HRHN-GAL ([1]; 10 μM): 0.77 fold
Fold activation, HRHN-GAL ([1]; 30 μM): 0.79 fold
Fold activation, HRHN-GAL + PGC-1a ([1]; reporter 0.42:vector 0.00875:PGC-1a 0.035, 0.3 μM): 1.00 fold
Fold activation, HRHN-GAL + PGC-1a ([1]; reporter 0.42:vector 0.00875:PGC-1a 0.035, 1 μM): 0.65 fold
Fold activation, HRHN-GAL + PGC-1a ([1]; reporter 0.42:vector 0.00875:PGC-1a 0.035, 3 μM (first 3 μM column)): 0.72 fold
Fold activation, HRHN-GAL + PGC-1a ([1]; reporter 0.42:vector 0.00875:PGC-1a 0.035, 3 μM (second 3 μM column)): 1.09 fold
Fold activation, HRHN-GAL + PGC-1a ([1]; reporter 0.42:vector 0.00875:PGC-1a 0.035, 10 μM): 0.69 fold
Fold activation, HRHN-GAL + PGC-1a ([1]; reporter 0.42:vector 0.00875:PGC-1a 0.035, 30 μM): 0.81 fold
Fold activation, GAL-hERRa + PGC-1a ([2]; 0.3 μM): 1.69 fold
Fold activation, GAL-hERRa + PGC-1a ([2]; 1 μM): 2.07 fold
Fold activation, GAL-hERRa + PGC-1a ([2]; 3 μM (first 3 μM column)): 2.43 fold
Fold activation, GAL-hERRa + PGC-1a ([2]; 3 μM (second 3 μM column)): 2.47 fold
Fold activation, GAL-hERRa + PGC-1a ([2]; 10 μM): 3.75 fold
Fold activation, GAL-hERRa + PGC-1a ([2]; 30 μM): 3.31 fold
Fold activation, GAL-hERRa ([2]; 0.3 μM): 1.10 fold
Fold activation, GAL-hERRa ([2]; 1 μM): 0.96 fold
Fold activation, GAL-hERRa ([2]; 3 μM (first 3 μM column)): 1.55 fold
Fold activation, GAL-hERRa ([2]; 3 μM (second 3 μM column)): 1.57 fold
Fold activation, GAL-hERRa ([2]; 10 μM): 1.44 fold
Fold activation, GAL-hERRa ([2]; 30 μM): 1.87 fold
Fold activation, Receptor ERRα ([2]; 3 μM): 1.5 fold
Fold activation, Receptor ERRα ([2]; 10 μM): 1.7 fold
Fold activation, Receptor ERRα ([2]; 30 μM): 1.6 fold
Activation of the reporter construct for ERRα ([2]; Table 1 conditions (reporter:Gal-ERR:PGC-1a=0.4:0.035:0.035), any of the concentrations tested): failed to activate
Activation of the reporter construct for ERRα ([2]; different assay conditions (reporter plasmid:Gal-ERR:PGC-1a=0.4:0.00875:0.035), Table 2): activated
Activation of ERRα ([2]; in the presence of PGC-1a): can activate
Fold activation, GAL-L-hERRb + PGC-1a ([3]; 0.3 μM): 1.27 fold
Fold activation, GAL-L-hERRb + PGC-1a ([3]; 1 μM): 1.19 fold
Fold activation, GAL-L-hERRb + PGC-1a ([3]; 3 μM (first 3 μM column)): 1.80 fold
Fold activation, GAL-L-hERRb + PGC-1a ([3]; 3 μM (second 3 μM column)): 2.02 fold
Fold activation, GAL-L-hERRb + PGC-1a ([3]; 10 μM): 2.45 fold
Fold activation, GAL-L-hERRb + PGC-1a ([3]; 30 μM): 2.52 fold
Fold activation, GAL-L-hERRb ([3]; 0.3 μM): 0.84 fold
Fold activation, GAL-L-hERRb ([3]; 1 μM): 1.05 fold
Fold activation, GAL-L-hERRb ([3]; 3 μM (first 3 μM column)): 1.26 fold
Fold activation, GAL-L-hERRb ([3]; 3 μM (second 3 μM column)): 1.15 fold
Fold activation, GAL-L-hERRb ([3]; 10 μM): 2.14 fold
Fold activation, GAL-L-hERRb ([3]; 30 μM): 2.46 fold
Fold activation, Receptor ERRβ ([3]; 3 μM): 1.9 fold
Fold activation, Receptor ERRβ ([3]; 10 μM): 3.1 fold
Fold activation, Receptor ERRβ ([3]; 30 μM): 3.8 fold
Fold activation of ERRβ ([3]; Table 1 conditions, concentrations of 10-30 μM): 3-4 fold
Activation of ERRβ ([3]; in the presence of PGC-1a): can activate
Fold activation, GAL-mERRg + PGC-1a ([4]; 0.3 μM): 1.38 fold
Fold activation, GAL-mERRg + PGC-1a ([4]; 1 μM): 1.59 fold
Fold activation, GAL-mERRg + PGC-1a ([4]; 3 μM (first 3 μM column)): 2.65 fold
Fold activation, GAL-mERRg + PGC-1a ([4]; 3 μM (second 3 μM column)): 2.29 fold
Fold activation, GAL-mERRg + PGC-1a ([4]; 10 μM): 2.82 fold
Fold activation, GAL-mERRg + PGC-1a ([4]; 30 μM): 3.09 fold
Fold activation, GAL-mERRg ([4]; 0.3 μM): 0.87 fold
Fold activation, GAL-mERRg ([4]; 1 μM): 0.92 fold
Fold activation, GAL-mERRg ([4]; 3 μM (first 3 μM column)): 1.26 fold
Fold activation, GAL-mERRg ([4]; 3 μM (second 3 μM column)): 1.70 fold
Fold activation, GAL-mERRg ([4]; 10 μM): 1.49 fold
Fold activation, GAL-mERRg ([4]; 30 μM): 1.91 fold
Fold activation, Receptor ERRγ ([4]; 3 μM): 5 fold and 5.0 fold
Fold activation, Receptor ERRγ ([4]; 10 μM): 5.9 fold
Fold activation, Receptor ERRγ ([4]; 30 μM): 6.6 fold
Activation of ERRγ ([4]; in the presence of PGC-1a): can activate
Activity on ERα (activate or inhibit) (human ERα; CV-1 reporter assay): failed to activate or inhibit
Fold Activation, ERE-TK-luc, hERa (human ERα; Table 7, CV-1, drug conc 30 μM): 0.53 fold
Activation of ERa (human ERα; specificity for ERRs): do not activate
Activity on ERβ (activate or inhibit) (human ERβ; CV-1 reporter assay): failed to activate or inhibit
Fold activation, Receptor ERRβ (human ERβ; CV-1, 3 μM): 1.1 fold
Fold activation, Receptor ERRβ (human ERβ; CV-1, 10 μM): 1.0 fold
Fold activation, Receptor ERRβ (human ERβ; CV-1, 30 μM): 1.2 fold
Fold Activation, ERE-TK-luc, hERb (human ERβ; Table 7, CV-1, drug conc 30 μM): 1.19 fold
Activation of ERb (human ERβ; specificity for ERRs): do not activate
